Measurements from PubChem BioAssay AID248 (DTP/NCI, 2004).
Values joined by “and” are separate entries in the source; they are usually repeats but may differ in a detail not shown here. Equal values may be shown once. Inconclusive results and toxic doses are left out. Rule as the data show it: active = T/C of 150% or more; inactive = T/C below 125%.

Tested on: L1210 leukemia ip in BDF1 mice, survival T/C
Assay: NCI In Vivo Anticancer Drug Screen. Data for tumor model L1210 Leukemia (intraperitoneal) in B6D2F1 (BDF1) mice
Settings: endpoint: mean survival time, higher = longer survival
Method in brief: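 Each compound was tested against a transplantable tumor grown in mice. The endpoint was survival, with treated animals benchmarked against vehicle controls as a simple ratio.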

[1] = dose: 50.0 mg/kg/injection, schedule: Q01DX009 (ip), vehicle: saline with Tween-80
[2] = dose: 100.0 mg/kg/injection, schedule: Q01DX001 (ip), vehicle: carboxymethylcellulose (CMC)
[3] = dose: 100.0 mg/kg/injection, schedule: Q01DX009 (ip), vehicle: saline with Tween-80
[4] = dose: 200.0 mg/kg/injection, schedule: Q01DX001 (ip), vehicle: carboxymethylcellulose (CMC)
[5] = dose: 200.0 mg/kg/injection, schedule: Q01DX009 (ip), vehicle: saline with Tween-80
[6] = dose: 400.0 mg/kg/injection, schedule: Q01DX001 (ip), vehicle: carboxymethylcellulose (CMC)
[7] = dose: 25.0 mg/kg/injection, schedule: Q01DX009 (ip), vehicle: saline with Tween-80
[8] = dose: 50.0 mg/kg/injection, schedule: Q01DX009 (ip), vehicle: saline
[9] = dose: 100.0 mg/kg/injection, schedule: Q01DX009 (ip), vehicle: saline
[10] = dose: 100.0 mg/kg/injection, schedule: Q04DX003 (ip), vehicle: saline
[11] = dose: 200.0 mg/kg/injection, schedule: Q04DX003 (ip), vehicle: saline

Measured: T/C

CCCCNC(=O)OCC
inactive: dose: 50.0 mg/kg/injection, schedule: Q01DX001 (ip), vehicle: carboxymethylcellulose (CMC) 102 % of control | [1] 90 % of control | dose: 88.0 mg/kg/injection, schedule: Q01DX001 (ip), vehicle: carboxymethylcellulose (CMC) 104 % of control and 92 % of control | [2] 98 % of control | [3] 95 % of control | dose: 133.0 mg/kg/injection, schedule: Q01DX001 (ip), vehicle: carboxymethylcellulose (CMC) 93 % of control and 92 % of control | [4] 93 % of control and 92 % of control | [5] 93 % of control | dose: 300.0 mg/kg/injection, schedule: Q01DX001 (ip), vehicle: carboxymethylcellulose (CMC) 96 % of control and 106 % of control | [6] 102 % of control

O=C(O)c1cc(S(=O)(=O)F)c(Cl)cc1Cl
inactive: [7] 102 % of control | [1] 103 % of control | [3] 100 % of control and 101 % of control

C=COCCN(C)C
inactive: [8] 90 % of control | [9] 93 % of control | [10] 105 % of control | dose: 200.0 mg/kg/injection, schedule: Q01DX009 (ip), vehicle: saline 93 % of control | [11] 89 % of control

N#CC(C#N)=Cc1ccc2ccc3cccc4ccc1c2c34
inactive: dose: 100.0 mg/kg/injection, schedule: Q04DX003 (ip), vehicle: Klucel (hydroxypropylcellulose) (HPC) 91 % of control | dose: 200.0 mg/kg/injection, schedule: Q04DX003 (ip), vehicle: Klucel (hydroxypropylcellulose) (HPC) 93 % of control | dose: 400.0 mg/kg/injection, schedule: Q04DX003 (ip), vehicle: Klucel (hydroxypropylcellulose) (HPC) 93 % of control

O=C(Nc1ccc(N=C(Nc2ccccc2)c2ccccc2)cc1)c1ccc(C(=O)Nc2ccc(N=C(Nc3ccccc3)c3ccccc3)cc2)cc1
inactive: dose: 15.0 mg/kg/injection, schedule: Q01DX Z (ip), vehicle: carboxymethylcellulose (CMC) 93 % of control | dose: 30.0 mg/kg/injection, schedule: Q01DX Z (ip), vehicle: carboxymethylcellulose (CMC) 93 % of control | dose: 60.0 mg/kg/injection, schedule: Q01DX Z (ip), vehicle: carboxymethylcellulose (CMC) 97 % of control | dose: 120.0 mg/kg/injection, schedule: Q01DX Z (ip), vehicle: carboxymethylcellulose (CMC) 95 % of control

C[Se](=O)O
inactive: dose: 3.13 mg/kg/injection, schedule: Q01DX001 (ip), vehicle: saline 94 % of control | dose: 6.25 mg/kg/injection, schedule: Q01DX001 (ip), vehicle: saline 91 % of control | dose: 12.5 mg/kg/injection, schedule: Q01DX001 (ip), vehicle: saline 88 % of control

CCCCCCCC/C=C/CCCCCCCCC1=NCCN1CCO
inactive: dose: 2.5 mg/kg/injection, schedule: Q01DX009 (ip), vehicle: saline 104 % of control | dose: 5.0 mg/kg/injection, schedule: Q01DX009 (ip), vehicle: saline 93 % of control | dose: 10.0 mg/kg/injection, schedule: Q01DX001 (ip), vehicle: saline 90 % of control | dose: 10.0 mg/kg/injection, schedule: Q01DX009 (ip), vehicle: saline 104 % of control | dose: 20.0 mg/kg/injection, schedule: Q01DX001 (ip), vehicle: saline 92 % of control

O/N=C1\c2ccccc2-c2cc(Br)ccc21
inactive: [2] 95 % of control | [4] 95 % of control | [6] 90 % of control

N#CCCC(CCC#N)(S(=O)(=O)Cc1ccccc1)S(=O)(=O)Cc1ccccc1
inactive: [2] 101 % of control | [4] 101 % of control | [6] 89 % of control

Cc1nc(Cl)c(C(N)=O)nc1C
inactive: [7] 91 % of control | [1] 96 % of control | [3] 96 % of control and 97 % of control

Cc1ccc(Nc2ccc(Nc3ccc(CCO)cc3)c3c2C(=O)c2ccccc2C3=O)cc1
inactive: dose: 100.0 mg/kg/injection, schedule: Q01DX009 (ip), vehicle: Klucel (hydroxypropylcellulose) (HPC) 96 % of control | dose: 200.0 mg/kg/injection, schedule: Q01DX009 (ip), vehicle: Klucel (hydroxypropylcellulose) (HPC) 100 % of control | dose: 400.0 mg/kg/injection, schedule: Q01DX009 (ip), vehicle: Klucel (hydroxypropylcellulose) (HPC) 89 % of control

CCOC1(C)OC2CCCCC2O1 (stereo unspecified)
inactive: [1] 92 % of control | [3] 92 % of control | [5] 92 % of control

CCc1ccc(N=Nc2c(F)c(F)c(NC(C)=O)c(F)c2F)cc1
inactive: [2] 102 % of control | [4] 91 % of control | [6] 91 % of control

COC[CH2][Hg][O]C(C)=O
inactive: dose: 3.12 mg/kg/injection, schedule: Q04DX002 (ip), vehicle: Klucel (hydroxypropylcellulose) (HPC) 98 % of control | dose: 6.25 mg/kg/injection, schedule: Q04DX002 (ip), vehicle: Klucel (hydroxypropylcellulose) (HPC) 92 % of control | dose: 12.5 mg/kg/injection, schedule: Q04DX002 (ip), vehicle: Klucel (hydroxypropylcellulose) (HPC) 88 % of control and 90 % of control

COc1c(CO)cc(C)cc1CO
inactive: dose: 87.5 mg/kg/injection, schedule: Q04DX003 (ip), vehicle: saline with Tween-80 101 % of control | dose: 175.0 mg/kg/injection, schedule: Q04DX003 (ip), vehicle: saline with Tween-80 124 % of control | dose: 350.0 mg/kg/injection, schedule: Q04DX003 (ip), vehicle: saline with Tween-80 101 % of control

c1cncc(C2SCCCS2)c1
inactive: dose: 100.0 mg/kg/injection, schedule: Q04DX002 (ip), vehicle: DMSO 87 % of control | dose: 200.0 mg/kg/injection, schedule: Q04DX002 (ip), vehicle: DMSO 87 % of control

CCN1C(=O)CC2(CCN(C)CC2)C1=O
inactive: dose: 0.78 mg/kg/injection, schedule: Q01DX009 (ip), vehicle: saline 98 % of control | dose: 1.56 mg/kg/injection, schedule: Q01DX009 (ip), vehicle: saline 102 % of control | dose: 3.12 mg/kg/injection, schedule: Q01DX009 (ip), vehicle: saline 95 % of control | dose: 6.25 mg/kg/injection, schedule: Q01DX009 (ip), vehicle: saline 117 % of control | dose: 12.5 mg/kg/injection, schedule: Q01DX009 (ip), vehicle: saline 117 % of control | dose: 25.0 mg/kg/injection, schedule: Q01DX009 (ip), vehicle: saline 98 % of control | dose: 25.0 mg/kg/injection, schedule: Q04DX003 (ip), vehicle: saline 113 % of control | [8] 104 % of control and 113 % of control | dose: 50.0 mg/kg/injection, schedule: Q04DX003 (ip), vehicle: saline 115 % of control | [9] 93 % of control and 100 % of control | [10] 105 % of control | [11] 112 % of control | dose: 400.0 mg/kg/injection, schedule: Q01DX009 (ip), vehicle: saline 93 % of control | dose: 400.0 mg/kg/injection, schedule: Q04DX003 (ip), vehicle: saline 109 % of control

CCCCCCC(=O)/C=C\c1ccccc1
inactive: dose: 100.0 mg/kg/injection, schedule: Q01DX001 (sc), vehicle: other 94 % of control | dose: 200.0 mg/kg/injection, schedule: Q01DX001 (sc), vehicle: other 91 % of control | dose: 400.0 mg/kg/injection, schedule: Q01DX001 (sc), vehicle: other 100 % of control
